Measurements as given in patent US7452887B2, “Quinoline- and isoquinoline-based compounds exhibiting ATP-utilizing enzyme inhibitory activity, and compositions, and uses thereof” (Amphora Discovery Corporation, priority 2004, dated 2008).

Legend:
Test in all cases: HTS ATP-utilizing enzyme assay, off-chip mobility-shift (Caliper HTS 250)
Conditions in all cases: test compound 10 μM, kinase listed = active (greater than six-sigma from the mean activity of inactive compounds)
[1] = target: ABL1 (Homo sapiens, UniProt P00519); assay type: biochemical
Sequence of ABL1 (P00519 whole entry): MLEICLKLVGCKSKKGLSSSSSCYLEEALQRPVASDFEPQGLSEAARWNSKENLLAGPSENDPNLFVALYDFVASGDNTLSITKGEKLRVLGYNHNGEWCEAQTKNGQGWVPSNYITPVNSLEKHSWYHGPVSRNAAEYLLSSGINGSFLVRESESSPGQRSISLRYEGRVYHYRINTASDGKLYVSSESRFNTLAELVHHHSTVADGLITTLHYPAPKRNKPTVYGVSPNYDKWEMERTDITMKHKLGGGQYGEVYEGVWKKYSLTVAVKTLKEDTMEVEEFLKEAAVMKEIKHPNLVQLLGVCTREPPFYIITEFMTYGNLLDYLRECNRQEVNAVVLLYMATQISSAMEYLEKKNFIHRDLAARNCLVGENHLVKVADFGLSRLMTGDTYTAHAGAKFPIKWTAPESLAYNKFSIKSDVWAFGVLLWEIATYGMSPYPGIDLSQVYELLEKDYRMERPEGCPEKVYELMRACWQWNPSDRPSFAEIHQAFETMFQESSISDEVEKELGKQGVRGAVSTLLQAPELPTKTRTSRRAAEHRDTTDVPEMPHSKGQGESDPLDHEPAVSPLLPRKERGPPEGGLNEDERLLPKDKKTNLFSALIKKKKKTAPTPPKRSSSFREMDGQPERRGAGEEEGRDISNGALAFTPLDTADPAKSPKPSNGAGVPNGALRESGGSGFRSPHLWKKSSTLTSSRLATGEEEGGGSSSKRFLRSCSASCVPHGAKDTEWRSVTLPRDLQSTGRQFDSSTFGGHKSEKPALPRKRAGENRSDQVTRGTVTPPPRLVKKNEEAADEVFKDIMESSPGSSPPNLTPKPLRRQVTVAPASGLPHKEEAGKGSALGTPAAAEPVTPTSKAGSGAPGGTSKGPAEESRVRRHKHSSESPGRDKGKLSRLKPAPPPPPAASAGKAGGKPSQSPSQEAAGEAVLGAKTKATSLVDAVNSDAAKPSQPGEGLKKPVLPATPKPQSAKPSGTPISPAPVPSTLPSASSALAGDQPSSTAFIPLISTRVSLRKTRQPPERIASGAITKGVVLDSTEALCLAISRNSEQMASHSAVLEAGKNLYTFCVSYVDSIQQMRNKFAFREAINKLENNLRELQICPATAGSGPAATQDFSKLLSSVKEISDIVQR
In short: (§1)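 Test compound at 10 μM final was incubated with kinase and peptide substrate in HEPES pH 7.5 buffer with Triton X-100 and BSA for 2.5 hrs at 20° C. to 22° C., then stopped with EDTA. Inhibition came from the substrate-to-phosphorylated-product ratio on a microfluidic mobility-shift read. EDTA wells served as 100% control.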

[2] = target: SRC (Homo sapiens, UniProt P12931); assay type: biochemical
Sequence of SRC (P12931 whole entry): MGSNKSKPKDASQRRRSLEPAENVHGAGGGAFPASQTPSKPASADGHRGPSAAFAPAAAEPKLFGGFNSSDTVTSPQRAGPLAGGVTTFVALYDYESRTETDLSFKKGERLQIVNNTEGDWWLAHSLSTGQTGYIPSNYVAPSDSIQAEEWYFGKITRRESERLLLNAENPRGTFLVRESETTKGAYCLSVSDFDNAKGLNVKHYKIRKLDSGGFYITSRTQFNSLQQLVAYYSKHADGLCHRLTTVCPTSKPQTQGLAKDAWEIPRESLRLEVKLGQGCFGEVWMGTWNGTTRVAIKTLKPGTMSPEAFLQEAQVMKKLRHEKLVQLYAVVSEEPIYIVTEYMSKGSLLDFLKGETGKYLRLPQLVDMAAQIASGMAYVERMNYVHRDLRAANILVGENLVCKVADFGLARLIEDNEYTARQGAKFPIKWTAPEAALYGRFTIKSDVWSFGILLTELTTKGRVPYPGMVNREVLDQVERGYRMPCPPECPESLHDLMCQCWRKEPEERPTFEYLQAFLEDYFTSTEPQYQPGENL
In short: as §1

[3] = target: AKT1 (Homo sapiens, UniProt P31749); assay type: biochemical
Sequence of AKT1 (P31749 whole entry): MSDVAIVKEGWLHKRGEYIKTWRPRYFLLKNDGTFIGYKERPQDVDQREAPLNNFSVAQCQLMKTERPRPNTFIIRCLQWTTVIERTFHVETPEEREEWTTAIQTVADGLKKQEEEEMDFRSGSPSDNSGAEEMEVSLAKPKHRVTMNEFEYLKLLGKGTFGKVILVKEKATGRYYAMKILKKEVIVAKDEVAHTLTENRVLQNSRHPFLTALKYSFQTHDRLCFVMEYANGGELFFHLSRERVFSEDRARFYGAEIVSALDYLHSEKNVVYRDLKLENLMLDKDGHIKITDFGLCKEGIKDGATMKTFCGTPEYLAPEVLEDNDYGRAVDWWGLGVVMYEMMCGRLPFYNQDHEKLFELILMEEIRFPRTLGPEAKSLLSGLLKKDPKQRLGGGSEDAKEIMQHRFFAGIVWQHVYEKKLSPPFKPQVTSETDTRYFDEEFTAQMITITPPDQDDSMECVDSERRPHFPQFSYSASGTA
In short: as §1

[4] = target: CDK5 (Homo sapiens, UniProt Q00535); assay type: biochemical
Sequence of CDK5 (Q00535 whole entry): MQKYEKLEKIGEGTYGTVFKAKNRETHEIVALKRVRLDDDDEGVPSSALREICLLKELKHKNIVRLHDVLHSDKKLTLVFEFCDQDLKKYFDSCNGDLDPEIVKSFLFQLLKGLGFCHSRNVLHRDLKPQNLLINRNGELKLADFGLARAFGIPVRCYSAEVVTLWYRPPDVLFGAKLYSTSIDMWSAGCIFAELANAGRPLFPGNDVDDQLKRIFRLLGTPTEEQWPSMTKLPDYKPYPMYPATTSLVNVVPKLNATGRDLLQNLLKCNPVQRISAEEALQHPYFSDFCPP
Sequence of CDK5 (Q15078 whole entry partner): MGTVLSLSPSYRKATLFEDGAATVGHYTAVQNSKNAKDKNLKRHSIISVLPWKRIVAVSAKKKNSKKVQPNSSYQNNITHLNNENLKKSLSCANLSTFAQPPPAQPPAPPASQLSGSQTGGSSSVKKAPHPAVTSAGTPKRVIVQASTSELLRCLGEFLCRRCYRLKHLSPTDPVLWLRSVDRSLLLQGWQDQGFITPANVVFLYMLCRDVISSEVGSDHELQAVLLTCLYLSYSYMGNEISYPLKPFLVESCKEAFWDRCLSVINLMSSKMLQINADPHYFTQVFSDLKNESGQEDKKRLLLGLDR
In short: as §1

[5] = target: GSK-3-β (Homo sapiens, UniProt P49841); assay type: biochemical
Sequence of GSK-3-β (P49841 whole entry): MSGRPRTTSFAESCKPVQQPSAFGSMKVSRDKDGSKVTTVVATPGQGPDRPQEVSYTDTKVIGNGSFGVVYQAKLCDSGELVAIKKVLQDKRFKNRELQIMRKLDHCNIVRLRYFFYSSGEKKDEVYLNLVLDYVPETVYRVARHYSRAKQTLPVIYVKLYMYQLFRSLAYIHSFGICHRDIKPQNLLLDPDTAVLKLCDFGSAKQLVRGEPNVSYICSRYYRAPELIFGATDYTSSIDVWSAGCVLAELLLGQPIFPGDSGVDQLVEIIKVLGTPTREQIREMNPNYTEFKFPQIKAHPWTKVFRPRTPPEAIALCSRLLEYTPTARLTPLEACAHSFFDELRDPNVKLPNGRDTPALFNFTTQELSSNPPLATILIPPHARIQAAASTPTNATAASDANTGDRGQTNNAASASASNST
In short: as §1

[6] = tested on: CK2; assay type: biochemical, human
From the text: The following procedures describe the reagent and plate preparation for a HTS of an ATP-utilizing enzyme, such as a protein kinase, run in an off-chip mobility-shift assay format. The following provides an HTS protocol for running a protein kinase HTS screen on a Caliper HTS 250 microfluidics system. The following parameters are dependent on the protein kinase used and can be determined by one skilled in the art as part of a typical assay development process. For example, the peptide substrate used can be identified from the current literature, by screening a peptide library of potential protein kinase substrates, or by other applicable means accepted in the field.
The following table provides typical screen assay parameters appropriate for a Caliper HTS 250 microfluidics system.
The reagents and buffers listed in the following table are generally applicable for developing and running an HTS screen on a human protein kinase using the Caliper HTS 250 system.
The following reagents were prepared using the previously described buffers.
A 2× Master Buffer solution was prepared by combining 200 mL of 1 M HEPES, pH 7.5, 2 mL of 10% Triton X-100, 20 mL of 10% BSA, and 778 mL of H2O.
A 2.5× Substrate Buffer solution was prepared by combining 177.408 mL of 2× Master Buffer, 0.887 mL of 1 mM peptide-X, and 176.521 mL of H2O.
A 1.55× Termination Buffer solution was prepared by combining 762.05 mL of 2× Master Buffer, 95.1 mL of 0.5 M EDTA, and 666.94 mL of H2O. […]
Assays to determine the kinase inhibitory activity of compounds of the present disclosure were performed using a Caliper HTS 250 microfluidics device, Greiner U-bottom assay plates, a Multidrop for transfer of reagents, and Biomek FX (AMNCBM03) software. […] The inhibition of the ATP-utilizing enzyme, such as a particular protein kinase, was determined by measuring the ratio of the peptide substrate to phosphorylated product for each well of the assay plate using the Caliper HTS 250 system. […]

| Activity [1] | Activity [2] | Activity [3] | Activity [4] | Activity [5] | Activity [6] | SMILES |
| --- | --- | --- | --- | --- | --- | --- |
| ABL1 | SRC |  |  |  |  | CN1CCN(c2ccc(Nc3ccnc4ccc(-c5cccc6ccccc56)cc34)cc2)CC1 [N-(4-(4-methylpiperazin-1-yl)phenyl)-6-(naphthalen-1-yl)quinolin-4-amine] |
|  |  | AKT1 | CDK5 | GSK-3-β | CK2 | CN1CCN(c2ccc(Nc3ccnc4ccc(-c5ccncc5)cc34)cc2)CC1 [N-(4-(4-methylpiperazin-1-yl)phenyl)-6-(pyridin-4-yl)quinolin-4-amine] |
